Laboratory results taken from patent US20080075660A1, “Near infrared-fluorescence using phospholipid ether analog dyes in endoscopic applications” (Cellectar, LLC, priority 2006, published 2008).

How the values were obtained:
colon tumors = assay: microPET/microCT imaging of I-124-NM404 in colon tumor model in rats (PIRC rat); type: in vivo
From the text: FIG. 1 provides a 2D microCT projection of an excised PIRC rat colon filled with 2% barium (A) and ^124I-NM404 microPET image in a PIRC Rat (B) and the fused microPET/microCT image (C). Fiducial marker (M), Tumor (arrow).
Multiple tumors have been detected protruding into the colon lumen.

malignant tumors = conditions: radiolabeled versions (such as I-124), known from earlier studies; cited from earlier work

C[N+](C)(C)CCOP(=O)([O-])OCCCCCCCCCCCCCCCCCCc1ccc(I)cc1 [NM404, 18-(p-Iodophenyl)octadecyl phosphocholine]
accumulation in excised colon on microPET image (colon tumors; PIRC rat colon with multiple tumors, microPET): one area of accumulation only
accumulation in colon tumors, fused microCT/microPET image (colon tumors; adenocarcinoma versus other colon tumors): seen only in a tumor that later proved to be an adenocarcinoma
accumulation in benign polyps (colon tumors; all other colon tumors, which turned out to be benign polyps): did not show accumulation
accumulation in malignant versus benign tumors (malignant tumors): accumulate in malignant tumors, but not in benign tumors such as polyps
